# According to publication PMC5408233, “Marine Cyclic Guanidine Alkaloids Monanchomycalin B and Urupocidin A Act as Inhibitors of TRPV1, TRPV2 and TRPV3, but not TRPA1 Receptors” (Marine Drugs, 2017):
# Read-outs that look alike come from different tables or passages of the source.
# Assays:
# [1] = target: T1, rat TRPV1 (rTRPV1) (Rattus norvegicus, UniProt O35433); assay: Fluo-4 intracellular calcium assay, inhibition of capsaicin-induced [Ca2+] response in CHO cells expressing rTRPV1; format: cell-based
# T1 construct: expressed in transfected cells
# T1 sequence (O35433 whole entry): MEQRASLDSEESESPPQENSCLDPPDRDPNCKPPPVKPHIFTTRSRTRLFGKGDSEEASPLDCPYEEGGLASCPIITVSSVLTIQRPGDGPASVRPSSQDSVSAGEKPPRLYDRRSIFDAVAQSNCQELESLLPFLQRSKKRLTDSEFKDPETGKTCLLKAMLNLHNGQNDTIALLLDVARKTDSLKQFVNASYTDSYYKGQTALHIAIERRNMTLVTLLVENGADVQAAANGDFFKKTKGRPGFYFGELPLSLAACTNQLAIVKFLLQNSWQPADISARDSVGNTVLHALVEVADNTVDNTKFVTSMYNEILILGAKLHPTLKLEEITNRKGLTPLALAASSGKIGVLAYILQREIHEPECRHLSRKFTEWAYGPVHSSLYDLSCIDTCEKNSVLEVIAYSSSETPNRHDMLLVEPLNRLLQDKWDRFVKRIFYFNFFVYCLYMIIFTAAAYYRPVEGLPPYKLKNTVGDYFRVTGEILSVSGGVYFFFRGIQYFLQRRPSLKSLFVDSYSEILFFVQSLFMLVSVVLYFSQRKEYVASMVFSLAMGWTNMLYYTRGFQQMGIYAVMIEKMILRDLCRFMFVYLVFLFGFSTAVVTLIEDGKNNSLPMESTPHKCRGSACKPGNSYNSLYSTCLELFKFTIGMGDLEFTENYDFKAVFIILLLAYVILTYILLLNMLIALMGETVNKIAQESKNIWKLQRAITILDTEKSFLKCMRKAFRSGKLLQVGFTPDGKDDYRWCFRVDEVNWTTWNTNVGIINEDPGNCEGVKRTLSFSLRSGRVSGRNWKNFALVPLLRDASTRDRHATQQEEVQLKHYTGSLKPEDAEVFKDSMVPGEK
# Experimental: (§1) The guanidine alkaloids (1–4) were tested on inhibitory activities against rTRPV1 (Figure 2A), mTRPV2 (Figure 2B), hTRPV3 (Figure 2C) and rTRPA1 receptors expressed in CHO (Chinese hamster ovary) cells in a Fluo-4–based intracellular calcium assay.
# (§2) Figure 2 Dose-response curves for monanchomycalin B (1), urupocidin A (2), semi-synthetic urupocidin A derivatives (3, 4) inhibitory activity on agonist-induced [Ca^2+] responses in CHO cells expressing rTRPV1 (A); mTRPV2 (B); hTRPV3 (C). Responses were measured as the pseudo-ratio (ΔFI/FI) determined using the following formula ΔFI/FI = (FI-FIbase)/FIbase, where FI is the measured peak fluorescence intensity, Fbase is the fluorescence intensity in non-stimulated cells. Inhibitory activity was expressed as the percentage of the response in the control experiment (untreated by alkaloids cells). Data are expressed as mean ± s.e. (n = 4–8).
# (§3) The effect of 1–4 on all the TRP-expressing cells was measured after preincubation at 37 °C for 30 min for standardization. […] Capsazepine (CZP) or non-specific blocker ruthenium red (RR) were used as a positive control for TRPV1 and for the other studied TRP receptors correspondingly.
# (§4) The mouse TRPV2 gene was cloned form pancreatic beta cell line MIN6 and the CHO cell line stably expressing mouse TRPV2 was generated using T-Rex System (Thermo Fisher Scientific Inc., Waltham, MA, USA) similarly previously obtained stable cell lines for rat TRPV1, human TRPV3 and rat TRPA1 [6, 8]. Fluorescent assays were performed as described in [6]. The alkaloid’s solutions of desired concentration were obtained by serial dilution of water stock solutions (10 mg/mL) in calcium assay buffer (10 mM HEPES/HBSS, pH 7.4). The buffer alone (negative control) or serial dilutions of alkaloids 1–4 (20 μl) were added to the cells loaded with the cytoplasmic calcium indicator Fluo-4AM using Fluo-4 Direct™ Calcium Assay Kit (Thermo Fisher Scientific Inc., Waltham, MA, USA) (80 μl) and the cells were incubated 30 min at 37 °C. Changes in cell fluorescence (λex = 485 nm, λem = 520 nm) were monitored using NOVO star (BMG LABTECH, Ortenberg, Germany) before and after the addition of relevant agonist (500 nM capsaicin for rTRPV1, 300 μM 2APB for mTRPV2, 200 μM 2APB for hTRPV3, 100 μM AITC for rTRPA1) at 25 °C. Average cell responses to agonists in controls were about 60, 45, 40, 85% of the responses produced by 5 μM ionomycin for rTRPV1, mTRPV2, hTRPV3, rTRPA1 correspondingly. To avoid the spread of the data due to prolonged instrumental measurement each experimental point has control in the nearest plate wells. Curve fitting and parameter estimations were performed with Microsoft Excel 2007 (Microsoft Corporation, Redmond, WA, USA) and Origin 7.0 (OriginLab Corporation, Northampton, MA, USA). The EC50 values were determined as the concentration of test substance required to produce half-maximal decreases in [Ca^2+].
# [2] = target: T2, human TRPV3 (hTRPV3) (Homo sapiens, UniProt Q8NET8); assay: Fluo-4 intracellular calcium assay, inhibition of 2APB-induced [Ca2+] response in CHO cells expressing hTRPV3; format: cell-based
# T2 construct: expressed in transfected cells
# T2 sequence (Q8NET8 1-790): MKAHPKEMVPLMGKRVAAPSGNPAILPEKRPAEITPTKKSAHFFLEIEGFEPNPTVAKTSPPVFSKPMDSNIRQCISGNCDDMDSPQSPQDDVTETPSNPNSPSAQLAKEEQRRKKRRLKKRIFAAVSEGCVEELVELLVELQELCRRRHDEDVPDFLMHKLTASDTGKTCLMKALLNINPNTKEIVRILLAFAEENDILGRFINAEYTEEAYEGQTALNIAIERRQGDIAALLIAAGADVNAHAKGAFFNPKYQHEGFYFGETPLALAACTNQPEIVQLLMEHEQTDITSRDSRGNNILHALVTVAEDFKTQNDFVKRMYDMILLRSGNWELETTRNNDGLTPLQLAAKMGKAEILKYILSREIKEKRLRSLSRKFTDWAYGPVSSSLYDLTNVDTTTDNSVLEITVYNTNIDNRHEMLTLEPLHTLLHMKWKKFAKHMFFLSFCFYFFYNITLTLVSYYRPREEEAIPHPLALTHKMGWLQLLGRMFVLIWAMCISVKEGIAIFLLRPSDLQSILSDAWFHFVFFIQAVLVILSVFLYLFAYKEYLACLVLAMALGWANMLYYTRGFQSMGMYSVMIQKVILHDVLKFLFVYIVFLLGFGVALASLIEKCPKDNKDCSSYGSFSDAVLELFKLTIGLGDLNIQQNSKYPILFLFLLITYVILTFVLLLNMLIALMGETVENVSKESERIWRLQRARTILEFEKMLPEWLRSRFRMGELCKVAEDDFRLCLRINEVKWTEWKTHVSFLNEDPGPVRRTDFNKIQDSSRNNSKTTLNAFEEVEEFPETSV
# Experimental: as §1, §2, §3, §4
# [3] = target: T3, rat TRPA1 (rTRPA1) (Rattus norvegicus, UniProt Q6RI86); assay: Fluo-4 intracellular calcium assay, inhibition of AITC-induced [Ca2+] response in CHO cells expressing rTRPA1; format: cell-based; details: for EC50 (µM) rTRPA1: inhibitory activity, CHO cells expressing rTRPA1, agonist 100 μM AITC, preincubation 30 min at 37 °C
# T3 construct: expressed in transfected cells
# T3 sequence (Q6RI86 whole entry): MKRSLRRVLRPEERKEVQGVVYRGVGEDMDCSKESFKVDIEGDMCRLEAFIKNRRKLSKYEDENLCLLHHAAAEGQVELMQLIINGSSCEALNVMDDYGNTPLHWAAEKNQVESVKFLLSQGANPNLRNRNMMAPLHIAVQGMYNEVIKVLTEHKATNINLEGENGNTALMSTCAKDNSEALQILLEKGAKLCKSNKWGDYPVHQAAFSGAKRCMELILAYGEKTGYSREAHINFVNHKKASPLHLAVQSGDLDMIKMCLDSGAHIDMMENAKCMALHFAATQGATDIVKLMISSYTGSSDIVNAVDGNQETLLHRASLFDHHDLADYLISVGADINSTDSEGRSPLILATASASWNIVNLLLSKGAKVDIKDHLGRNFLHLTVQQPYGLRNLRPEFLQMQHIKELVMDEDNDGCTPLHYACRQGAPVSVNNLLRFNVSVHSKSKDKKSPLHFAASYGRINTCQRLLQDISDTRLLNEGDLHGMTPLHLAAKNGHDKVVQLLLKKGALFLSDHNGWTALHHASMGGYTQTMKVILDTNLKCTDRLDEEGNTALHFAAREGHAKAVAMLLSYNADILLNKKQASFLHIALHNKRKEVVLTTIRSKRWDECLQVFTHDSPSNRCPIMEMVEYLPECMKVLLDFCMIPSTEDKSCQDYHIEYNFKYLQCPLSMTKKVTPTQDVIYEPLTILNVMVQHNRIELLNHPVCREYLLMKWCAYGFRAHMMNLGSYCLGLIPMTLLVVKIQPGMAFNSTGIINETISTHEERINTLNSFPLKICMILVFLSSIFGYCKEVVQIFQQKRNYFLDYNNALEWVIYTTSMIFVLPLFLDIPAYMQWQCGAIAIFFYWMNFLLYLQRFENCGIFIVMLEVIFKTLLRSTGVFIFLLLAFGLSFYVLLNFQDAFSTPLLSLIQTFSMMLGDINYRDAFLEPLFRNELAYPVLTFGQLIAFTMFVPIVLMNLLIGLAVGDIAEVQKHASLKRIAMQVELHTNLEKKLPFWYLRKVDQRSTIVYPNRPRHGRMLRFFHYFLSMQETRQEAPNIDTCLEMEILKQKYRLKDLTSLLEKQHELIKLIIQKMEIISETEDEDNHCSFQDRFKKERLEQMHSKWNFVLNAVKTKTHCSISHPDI
# Experimental: as §1, §3, §4
# [4] = target: T1, rat TRPV1 (rTRPV1); parameters: method as in doi:10.1007/s10600-015-1243-6, doi:10.1016/j.tetlet.2012.12.099; details: determined in the same test system; read-out: EC50, inhibitory activity against rTRPV1; cited from earlier work
# [5] = target: T2, human TRPV3 (hTRPV3); parameters: method as in doi:10.1007/s10600-015-1243-6, doi:10.1016/j.tetlet.2012.12.099; details: determined in the same test system; read-out: EC50, inhibitory activity toward hTRPV3; cited from earlier work
# [6] = target: T3, rat TRPA1 (rTRPA1); parameters: method as in doi:10.1007/s10600-015-1243-6; details: read-out: EC50, inhibition of rTRPA1; cited from earlier work
# [7] = target: T4, mouse TRPV2 (mTRPV2) (Mus musculus, UniProt Q9WTR1); assay: Fluo-4 intracellular calcium assay, inhibition of 2APB-induced [Ca2+] response in CHO cells expressing mTRPV2; format: cell-based
# T4 construct: expressed in transfected cells
# T4 sequence (Q9WTR1 1-756): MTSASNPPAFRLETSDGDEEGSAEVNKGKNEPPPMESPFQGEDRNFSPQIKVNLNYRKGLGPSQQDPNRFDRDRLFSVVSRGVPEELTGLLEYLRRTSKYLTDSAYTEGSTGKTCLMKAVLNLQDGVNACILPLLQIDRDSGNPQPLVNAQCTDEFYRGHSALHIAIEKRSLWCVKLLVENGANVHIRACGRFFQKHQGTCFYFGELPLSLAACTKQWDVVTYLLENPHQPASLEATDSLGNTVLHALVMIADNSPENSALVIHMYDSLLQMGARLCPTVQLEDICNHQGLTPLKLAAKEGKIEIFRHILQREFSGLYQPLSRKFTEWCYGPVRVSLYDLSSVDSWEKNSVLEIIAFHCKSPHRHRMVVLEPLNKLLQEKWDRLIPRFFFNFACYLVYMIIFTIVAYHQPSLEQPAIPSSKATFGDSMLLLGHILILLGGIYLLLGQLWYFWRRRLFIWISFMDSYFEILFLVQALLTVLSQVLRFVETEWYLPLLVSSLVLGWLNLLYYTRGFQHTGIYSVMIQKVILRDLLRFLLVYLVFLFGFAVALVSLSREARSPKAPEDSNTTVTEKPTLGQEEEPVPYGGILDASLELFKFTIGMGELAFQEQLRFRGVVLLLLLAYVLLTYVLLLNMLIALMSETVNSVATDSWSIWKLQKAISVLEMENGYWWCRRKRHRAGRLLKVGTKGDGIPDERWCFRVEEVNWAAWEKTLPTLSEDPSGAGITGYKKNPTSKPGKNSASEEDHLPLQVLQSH
# Experimental: as §1, §2, §3
# The mouse TRPV2 gene was cloned form pancreatic beta cell line MIN6 and the CHO cell line stably expressing mouse TRPV2 was generated using T-Rex System (Thermo Fisher Scientific Inc., Waltham, MA, USA) similarly previously obtained stable cell lines for rat TRPV1, human TRPV3 and rat TRPA1 [6, 8]. Fluorescent assays were performed as described in [6]. […] Changes in cell fluorescence (λex = 485 nm, λem = 520 nm) were monitored using NOVO star (BMG LABTECH, Ortenberg, Germany) before and after the addition of relevant agonist (500 nM capsaicin for rTRPV1, 300 μM 2APB for mTRPV2, 200 μM 2APB for hTRPV3, 100 μM AITC for rTRPA1) at 25 °C. […] The EC50 values were determined as the concentration of test substance required to produce half-maximal decreases in [Ca^2+].
# [8] = test system: HL-60 human leukemia cells; parameters: method as in doi:10.1016/j.tetlet.2012.05.162; details: cited from earlier work
# [9] = inhibitory activity, CHO cells expressing rTRPV1, agonist 500 nM capsaicin, preincubation 30 min at 37 °C, mean ± s.e., read-out: EC50 (µM) rTRPV1
# [10] = inhibitory activity, CHO cells expressing hTRPV3, agonist 200 μM 2APB, preincubation 30 min at 37 °C, mean ± s.e., read-out: EC50 (µM) hTRPV3
# [11] = 20 µM RR, positive control, data not shown
compound,measurement,setting,value
"CCCCCCC[C@@H](O)C[C@H]1CCC2=C(C(=O)OCCCCN(O)C(=N)N)[C@H](CCCCCCC)NC(=N)N21 [Compound 3, Tetrahydrourupocidin A]",EC50,[1]; [9],52.8 ± 5.31 µM
same,EC50,[2]; [10],29.2 ± 3.18 µM
same,EC50 (µM) rTRPA1,[3],not active
pulchranin A,EC50,[4],27.5 µM
same,EC50,[5],71.8 µM
same,EC50,[6],174 µM
"CCC=CC1CCC2(CC3CCC4C(C(=O)OCCCCCCCCCCCCCCCC(=O)N(CCCN)CCCCN)C5(CCCC(C)O5)NC(=[N+]34)N2)O1 (stereo not drawn) [Compound 1, monanchomycalin B]",EC50,[1],6.02 ± 0.36 µM
same,EC50,[7],2.84 ± 1.01 µM
same,EC50,[2],3.25 ± 0.6 µM
same,EC50 (µM) rTRPA1,[3],not active
same,Cytotoxic activities against HL-60 human leukemia cells,[8],potent cytotoxic activities
"N.N.N.N.N.N.N.N.N.N.N.N.N.N.[Cl-].[Cl-].[Cl-].[Cl-].[Cl-].[Cl-].[O-2].[O-2].[Ru+3].[Ru+3].[Ru+4] [RR, ruthenium red, reference compound]",Inhibition of the [Ca2+] response induced by specific agonist (TRPV2),[7]; [11],full inhibition
same,Inhibition of the [Ca2+] response induced by specific agonist (TRPV3),[2]; [11],full inhibition
same,Inhibition of the [Ca2+] response induced by specific agonist (TRPA1),[3]; [11],full inhibition
C1=C/[C@H]2[C@@H]3CCCC[C@H]3C[C@@H]2NCCCN[C@@H]2C[C@@H]3CCCC[C@H]3[C@@H]2/C=C/1 [haliclonadiamine],EC50,[4],19.9 µM
same,EC50,[5],77 µM
same,EC50,[6],86.7 µM
"CCC/C=C\CC[C@@H](O)C[C@H]1CCC2=C(C(=O)OCCCCN(O)C(=N)N)[C@H](CC/C=C\CCC)NC(=N)N21 [Compound 2, urupocidin A]",EC50,[1]; [9],21.5 ± 2.51 µM
same,EC50,"[7]; inhibitory activity, CHO cells expressing mTRPV2, agonist 300 μM 2APB, preincubation 30 min at 37 °C, mean ± s.e., read-out: EC50 (µM) mTRPV2",28.1 ± 6.65 µM
same,EC50,[2]; [10],23.6 ± 2.03 µM
same,EC50 (µM) rTRPA1,[3],not active
"Oc1cc2c(cc1O)CN(C(=S)NCCc1ccc(Cl)cc1)CCC2 [CZP, Capsazepine, reference compound]",Inhibition of the [Ca2+] response induced by specific agonist (TRPV1),"[1]; 10 µM CZP, positive control, data not shown",full inhibition
CCC/C=C\CC[C@@H](O)C[C@H]1CCC2=C(C(=O)OC)[C@H](CC/C=C\CCC)NC(=N)N21 [Compound 4],EC50 (µM) rTRPV1,"[1]; inhibitory activity, CHO cells expressing rTRPV1, agonist 500 nM capsaicin, preincubation 30 min at 37 °C, mean ± s.e.",almost not active
same,EC50,[1]; [9],435 ± 49.9 µM
same,EC50 (µM) hTRPV3,"[2]; inhibitory activity, CHO cells expressing hTRPV3, agonist 200 μM 2APB, preincubation 30 min at 37 °C, mean ± s.e.",almost not active
same,EC50,[2]; [10],193 ± 25.5 µM
same,EC50 (µM) rTRPA1,[3],not active
